Laboratory results taken from US20100331384A1, “GUANIDINE BASED COMPOUNDS” (UNIVERSIDAD DEL PAIS VASCO/EUSKAL HERRIKO UNIBERTSITATEA, priority 2007, published 2010).
Entries after “also recorded” stand apart in the source; their conditions may differ.

Legend:
[1] = biological target: T1, α2-ARs (Homo sapiens, UniProt P08913); experiment: [35S]GTPγS binding functional assay, compounds alone; type: biochemical; conditions: for Emax: read-out: Emax (%), percentage efficacy relative to UK14304; for agonistic or antagonistic properties in [35S]GTPγS experiments: human brain PFC; for stimulation of [35S]GTPγS binding by the compound on its own: human brain PFC membranes
T1 construct: other: human brain tissue in vitro; other: stimulation of [35S]GTPγS b
Protocol: The [^35S]GTPγs binding assay constitutes a functional measure of the interaction of the receptor and the G-protein and is a useful tool to distinguish between agonists (increasing the nucleotide binding), inverse agonists (decreasing the nucleotide binding), and neutral antagonists (not affecting the nucleotide binding) of GPCRs.^20 Experiments were performed in low-affinity receptor conditions for agonists (presence of guanine nucleotides and sodium in the medium), and therefore, typical potency values are two-three logarithmic units lower than affinity values obtained in radioligand receptor binding experiments.^20
(§1) Preparation of membranes. Neural membranes (P2 fractions) were prepared from the PFC of human brains obtained at autopsy in the Instituto Vasco de Medicina Legal, Bilbao, Spain. Postmortem human brain samples of each subject (˜1 g) were homogenized using a Teflon-glass grinder (10 up-and-down strokes at 1500 rpm) in 30 volumes of homogenization buffer (1 mM MgCl2, and 5 mM Tris-HCl, pH 7.4) supplemented with 0.25 M sucrose. The crude homogenate was centrifuged for 5 min at 1000×g ([…]) and the supernatant was centrifuged again for 10 min at 40000×g (4° C.). The resultant pellet was washed twice in 20 volumes of homogenization buffer and recentrifuged in similar conditions. Aliquots of 1 mg protein were stored at −70° C. until assay.
[^35S]GTPγs binding assays. The incubation buffer for measuring [^35S]GTPγs binding to brain membranes contained, in a total volume of 500 μL, 1 mM EGTA, 3 mM MgCl2, 100 mM NaCl, […], 50 mM Tris-HCl at pH 7.4 and 0.5 nM [^35S]GTPγs. Proteins aliquots were thawed and re-suspended in the same buffer. The incubation was started by addition of the membrane suspension (40 μg of membrane proteins) to the previous mixture and was performed at 30° C. for 120 min with shaking. In order to evaluate the influence of the compounds on [^35S]GTPγs binding, 8 concentrations (10^−10 to 10^−3M) of the different compounds were added to the assay. Incubations were terminated by adding 3 mL of ice-cold re-suspension buffer followed by rapid filtration through Whatman GF/C filters pre-soaked in the same buffer. The filters were rinsed twice with 3 mL of ice-cold re-suspension buffer, transferred to vials containing 5 mL of OptiPhase HiSafe II cocktail (Wallac, UK) and the radioactivity trapped was determined by liquid scintillation spectrometry (Packard 2200CA). […] Non-specific binding of the radioligand was defined as the remaining [^35S]GTPγs binding in the presence of 10 μM unlabelled GTPγs.

[2] = biological target: α2-ARs; conditions: starred compounds, affinity reported in reference 9 by the same group; cited from earlier work
[3] = tested on: extracellular NA levels in the PFC; experiment: In vivo microdialysis in the PFC, extracellular NA; parameters: species or system male Sprague Dawley rats; conditions: for Emax of increase in extracellular NA levels: local administration by reverse dialysis 1-100 μM in PFC, percentage of basal values
Description: Intracerebral microdialysis is a neurochemical technique that has been applied extensively in pharmacological studies aimed at investigating the effect of different drugs on brain neurotransmission. This technique allows one to collect a representative concentration of different neurotransmitters of the area where the probe is implanted while the animals are awake and freely moving.^21
Most antidepressant drugs are able to increase NA extracellular concentrations in different brain areas as the PFC, an area implicated in depression disease. Considering that α2-ARs exert a tonic inhibitory action on NA release from the noradrenergic terminals we assessed the ability of these two new compounds to increase NA extracellular concentration in this area. First, we tested the drugs when administered locally in order to confirm their antagonistic activity over α2-ARs in vivo.
A second step was to study the effect of these compounds increasing NA extracellular concentrations when administered systemically.
In Vivo Microdialysis assays. The experiments were carried out in male Sprague Dawley rats weighing between 250 g and 300 g. At the beginning of the experiments, animals were anaesthetized with chloral hydrate (400 mg/kg i.p.) and a microdialysis probe was implanted by stereotaxic surgery into prefrontal cortex (PFC) brain area. The coordinates selected for the PFC were as follows: AP (anterior to bregma) +2.8 mm, L (lateral from the mid-sagittal suture) +1 mm, DV (ventral from the dura surface) −5 mm.^22 After 24 hours for animal recovery, perfusion fluid (artificial cerebrospinal fluid) is pumped through the probe at a flow rate of 1 μl/min. In the semipermeable membrane, that is the critical side of the probe and is placed on the selected area, molecules flow into and out the cannulae by diffusion. Therefore, microdialysis technique allows local administration of substrates dissolved in the perfusion fluids.
When drugs were locally administered, they were dissolved in a CSF and applied during 70 min via dialysis probe implanted in the PFC in increasing concentrations of 1, 10 and 100 μM. The compounds systemically administered were dissolved in saline and injected intraperitoneally.
Samples, collected with the microdialysis procedure (every 35 min), were analyzed by HPLC with electrochemical detection. NA concentrations were monitorizated by an amperometric detector (Hewlett-Packard model 1049A) at an oxidizing potential of +650 mV. The movil phase (12 mM citric acid, 1 mM EDTA, 0.7 mM octylsodio sulfate, pH 5 and 10% methanol) was filtered, degassed (Hewlett-Packard model 1100 degasser) and delivered at a flow rate of 0.2 ml/min by a Hewlett-Packard model 1100 pump. Stationary phase was a column of 150×2.1 mm (Thermo Electron Corporation, U.S.A.). Samples (injection volume 37 μl) were injected and NA analized in a run time of 10 min. Solution of standard noradrenaline was injected every working day to create a new calibration table.
The mean values of the first three samples before substrate administration were considered as 100% basal value. All measures of extracellular NA concentrations are expressed as percentage of the baseline value±s.e.mean. One way analysis of variance (ANOVA) for control group or two way ANOVA between control and each treated group was assessed for statistical analysis. After the experiments, rats were sacrificed with an overdose of chloral hydrate and the brains were dissected to check the correct implantation of the probe.

[4] = biological target: α2-ARs; experiment: [3H]RX821002 competition binding assay in human brain PFC membranes; conditions: 31a vs 10b, 31b vs 17b
Protocol: as §1
[^3H]RX821002 binding assays. […] Incubations were terminated by diluting the samples with 5 ml of ice-cold Tris incubation buffer (4° C.). Membrane bound [^3H]RX821002 was separated by vacuum filtration through Whatman GF/C glass fibre filters. Then, the filters were rinsed twice with 5 ml of incubation buffer and transferred to minivials containing 3 ml of OptiPhase “HiSafe” II cocktail and counted for radioactivity by liquid scintillation spectrometry. Specific binding was determined and plotted as a function of the compound concentration. Non-specific binding was determined in the presence of adrenaline (10^−5 M).
Analysis of binding data. Analysis of competition experiments to obtain the inhibition constant (Ki) were performed by nonlinear regression using the GraphPad Prism program. All experiments were analysed assuming a one-site model of radioligand binding. Ki values were normalized to pKi values.

[5] = tested on: α2-ARs; conditions: previously described, reference 9; cited from earlier work
[6] = biological target: T1, α2-ARs; experiment: [3H]RX821002 competition binding assay in human brain PFC membranes; conditions: human brain tissue in vitro
[7] = tested on: mice; experiment: Tail suspension test; type: in vivo; conditions: compared with saline control, FIG. 4
Description: The tail suspension test as illustrated in FIG. 4 has become one of the most widely used models for assessing antidepressant-like activity in mice. The test is based on the fact that animals subjected to the short-term, inescapable stress of being suspended by their tail, will develop an immobile posture. Antidepressant medications encourage the animal to struggle and promote the occurrence of escape-related behaviour.

T1 sequence (P08913 whole entry): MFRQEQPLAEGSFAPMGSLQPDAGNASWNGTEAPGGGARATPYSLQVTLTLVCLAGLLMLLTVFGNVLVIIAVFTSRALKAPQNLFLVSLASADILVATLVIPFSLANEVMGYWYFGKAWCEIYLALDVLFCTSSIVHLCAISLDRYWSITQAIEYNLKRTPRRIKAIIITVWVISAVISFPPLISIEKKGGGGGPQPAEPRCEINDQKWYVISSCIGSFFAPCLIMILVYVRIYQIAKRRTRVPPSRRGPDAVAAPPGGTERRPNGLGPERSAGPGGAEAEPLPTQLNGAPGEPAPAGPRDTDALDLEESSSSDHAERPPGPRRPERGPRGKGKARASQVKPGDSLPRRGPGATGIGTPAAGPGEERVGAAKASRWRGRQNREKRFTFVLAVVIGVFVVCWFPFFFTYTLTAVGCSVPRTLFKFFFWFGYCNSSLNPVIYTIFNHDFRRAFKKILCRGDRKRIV

Compound: c1ccc(Cc2ccc(NC3=NCCN3)cc2)cc1 [Compound 4b, 1-(2-imidazolidinyliminio)-4-benzylbenzene]
- Emax [1]: 111%

Compound: N=C(N)Nc1ccc(Nc2ccccc2)cc1 [Compound 25b]
- affinity values (pKi) for the α2-ARs [2]: 6.83

Compound: c1ccc2c(c1)OCC(C1=NCCN1)O2 (stereo not drawn) [Idazoxan, reference compound]
- Emax of increase in extracellular NA levels [3]: 235±42%

Compound: N=C(N)Nc1ccc(Oc2ccccc2)cc1 [Compound 26b]
- affinity values (pKi) for the α2-ARs [2]: 6.05

Compound: Nc1ccc(NC2=NCCN2)cc1 [Compound 30a]
- affinity values (pKi) for the α2-ARs [2]: 6.92

Compound: N=C(N)Nc1ccc2c(c1)OCO2 [Compound 3b]
- affinity values (pKi) for the α2-ARs [2]: 6.40

Compound: N=C(N)Nc1ccc2c(c1)OCCO2 [Compound 31b]
- pKi higher than methylene containing counterpart [4]: 1.10 logarithmic units
- agonist or antagonist nature at α2-ARs, previously reported [5]: agonist
- affinity values (pKi) for the α2-ARs [2]: 8.21

Compound: Cc1ccc(NC2=NCCN2)cc1C [Compound 8b, 1-(2-imidazolidinylimino)-3,4-dimethylbenzene]
- agonistic or antagonistic properties in [35S]GTPγS experiments [1]: agonistic properties
- stimulation of [35S]GTPγS binding by the compound on its own [1]: stimulated binding
- Emax [1]: 89%
- affinity towards the α2-ARs compared with references [6]: within the range of those of Idazoxan and/or Clonidine

Compound: N=C(N)Nc1ccc(Sc2ccccc2)cc1 [Compound 27b]
- affinity values (pKi) for the α2-ARs [2]: 6.30

Compound: c1cc2c(cc1NC1=NCCN1)Cc1ccc(NC3=NCCN3)cc1C2 [Compound 18b, 2,6-di(2-imidazolidinylimino)-9,10-dihydroanthracene]
- agonistic or antagonistic properties in [35S]GTPγS experiments [1]: agonistic properties
- stimulation of [35S]GTPγS binding by the compound on its own [1]: did not stimulate binding
- affinity towards the α2-ARs compared with references [6]: within the range of those of Idazoxan and/or Clonidine

Compound: N=C(N)Nc1ccc2c(c1)CCCC2 [Compound 17b, N-(5,6,7,8-tetrahydro-naphthalen-2-yl)-guanidine]
- immobility period [7]: slightly shorter immobility period than the saline control
- agonistic or antagonistic properties in [35S]GTPγS experiments [1]: antagonistic properties
- stimulation of [35S]GTPγS binding by the compound on its own [1]: did not stimulate binding
- ability to cross the blood brain barrier (BBB) ([3]; deduced from NA increase after systemic administration): able to cross the blood brain barrier
- Emax of increase in extracellular NA levels [3]: 326±113%
- α2-AR antagonist properties in vivo ([3]; local and systemic administration, rats): α2-AR antagonist properties in vivo
- increase of NA extracellular concentration, maximal effect ([3]; systemic (intraperitoneal) administration, evaluated in PFC): 373±73%
- affinity towards the α2-ARs compared with references [6]: within the range of those of Idazoxan and/or Clonidine

Compound: c1cc2c(cc1NC1=NCCN1)OCCO2 [Compound 31a]
- pKi higher than methylene containing counterpart [4]: 0.52 logarithmic units
- affinity values (pKi) for the α2-ARs [2]: 7.85

Compound: Cc1ccc(NC2=NCCN2)cc1 [Compound 6b, 1-(2-imidazolidinylimino)-4-methylbenzene]
- agonistic or antagonistic properties in [35S]GTPγS experiments [1]: agonistic properties
- stimulation of [35S]GTPγS binding by the compound on its own [1]: stimulated binding
- Emax [1]: 97%
- affinity towards the α2-ARs compared with references [6]: within the range of those of Idazoxan and/or Clonidine

Compound: COc1ccc(NC(=N)N)cc1 [Compound 28b]
- affinity values (pKi) for the α2-ARs [2]: 6.39

Compound: c1ccc(Oc2ccc(NC3=NCCN3)cc2)cc1 [Compound 26a]
- affinity values (pKi) for the α2-ARs [2]: 6.58

Compound: c1ccc(Nc2ccc(NC3=NCCN3)cc2)cc1 [Compound 25a]
- affinity values (pKi) for the α2-ARs [2]: 6.56

Compound: COc1ccc(NC2=NCCN2)cc1 [Compound 28a]
- affinity values (pKi) for the α2-ARs [2]: 7.77

Compound: CSc1ccc(NC2=NCCN2)cc1 [Compound 29a]
- affinity values (pKi) for the α2-ARs [2]: 7.07

Compound: c1cc2c(cc1NC1=NCCN1)CCCC2 [Compound 10b, imidazolidin-2-ylidene-(5,6,7,8-tetrahydro-naphthalen-2-yl)-amine]
- agonistic or antagonistic properties in [35S]GTPγS experiments [1]: agonistic properties
- stimulation of [35S]GTPγS binding by the compound on its own [1]: stimulated binding
- Emax [1]: 100%
- affinity towards the α2-ARs compared with references [6]: within the range of those of Idazoxan and/or Clonidine

Compound: c1ccc(Sc2ccc(NC3=NCCN3)cc2)cc1 [Compound 27a]
- affinity values (pKi) for the α2-ARs [2]: 6.62

Compound: CSc1ccc(NC(=N)N)cc1 [Compound 29b]
- affinity values (pKi) for the α2-ARs [2]: 6.40

Compound: N=C(N)Nc1ccc2c(c1)Cc1ccc(NC(=N)N)cc1C2 [Compound 21b, 2,6-diguanidino-9,10-dihydroanthracene]
- agonistic or antagonistic properties in [35S]GTPγS experiments [1]: agonistic properties
- stimulation of [35S]GTPγS binding by the compound on its own [1]: did not stimulate binding
- affinity towards the α2-ARs compared with references [6]: within the range of those of Idazoxan and/or Clonidine

Compound: N=C(N)Nc1ccc(N)cc1 [Compound 30b]
- affinity values (pKi) for the α2-ARs [2]: 5.58

Compound: c1cc2c(cc1NC1=NCCN1)OCO2 [Compound 3]
- agonist or antagonist nature at α2-ARs, previously reported [5]: α2-AR antagonists; also recorded: antagonist
- affinity values (pKi) for the α2-ARs [2]: 7.33
